Data on two molecules can be found in PMC9721424, “Novel N-methylsulfonyl-indole derivatives: biological activity and COX-2/5-LOX inhibitory effect with improved gastro protective profile and reduced cardio vascular risks” (Journal of Enzyme Inhibition and Medicinal Chemistry, 2022).

One data set concerns the target T1, ovine COX-1 (Ovis aries, UniProt P05979).
T1 sequence (P05979 25-600): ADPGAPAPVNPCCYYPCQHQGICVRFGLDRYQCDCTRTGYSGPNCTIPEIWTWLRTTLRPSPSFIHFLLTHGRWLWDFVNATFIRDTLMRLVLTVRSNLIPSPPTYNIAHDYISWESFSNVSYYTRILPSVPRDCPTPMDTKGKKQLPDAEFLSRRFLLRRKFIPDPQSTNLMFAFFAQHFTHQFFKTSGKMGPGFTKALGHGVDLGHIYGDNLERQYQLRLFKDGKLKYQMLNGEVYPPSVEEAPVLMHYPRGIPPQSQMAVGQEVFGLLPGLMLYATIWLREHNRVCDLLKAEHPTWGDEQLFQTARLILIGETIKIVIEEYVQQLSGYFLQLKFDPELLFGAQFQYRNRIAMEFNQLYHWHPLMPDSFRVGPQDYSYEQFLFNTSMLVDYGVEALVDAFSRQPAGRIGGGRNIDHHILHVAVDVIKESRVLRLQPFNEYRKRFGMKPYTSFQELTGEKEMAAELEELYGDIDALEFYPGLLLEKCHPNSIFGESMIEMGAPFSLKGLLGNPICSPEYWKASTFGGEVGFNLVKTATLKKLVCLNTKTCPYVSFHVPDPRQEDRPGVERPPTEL
In words: COX-1 inhibition, enzyme immune assay (EIA) kit.

The test system of data set [1] is TNF-α in RAW264.7 macrophage cells. In words: In vitro measurement of TNF-α in RAW264.7 macrophage cells (RT-qPCR). Type of data set: cell-based. The text has this: Both Lipopolysaccharides (LPS) and hispidin were purchased from Sigma (Sigma-Aldrich, St. Louis, MO, USA)[40]. The foetal bovine serum (FBS) and Dulbecco’s modified Eagle’s medium (DMEM) were purchased from Hyclone (General Electric Healthcare Life Sciences, Mississauga, Canada), penicillin streptomycin (P/S) was purchased from Solarbio (Solarbio life sciences, Beijing, P. R. China). Results of all in vitro anti-inflammatory screening were obtained from the confirmatory diagnostic unit, VACSERA, Egypt.
DMEM was used to cultivate the macrophage cells RAW264.7 (Shanghai BOGO Industrial Co., Ltd., Shanghai, China), and supplemented with 10% FBS and 1% P/S (100 U/ml and […], respectively). […] They were treated with various concentrations of hispidin, then with 1 μg/ml LPS for the indicated time.
PBS (1 ml/well) was used to wash the cells in 24-well plates. […] For the experiments, CL Buffer included MgCl2 (M1028; Sigma) or RNasin Plus RNase Inhibitor (N2615; Promega). Before use, both Bio-Rad SPR and CL buffer were equilibrated to room temperature. […] Carefully, the resulting lysates were collected and either analysed immediately or stored frozen ([…]).
RT-qPCR analysis was performed in one-step SYBR Green RT-qPCR. […] A CFX96 real-time PCR instrument (Bio-Rad) was used under the following protocol: 50uC for 10 min, 95uC for 5 min, 95uC for 10 s/61uC for 15 s/72uC for 30 s.
Total RNA purified from cells was used as an RT-qPCR quantification standard.
A general note: In qPCR the cycle at which signal appears reflects the starting amount.

The test system of the next data set is stomach. In words: Histopathological examination of stomach. Type of data set: in vivo, rats. Particulars: rats, H&E stain. As for the experimental part: In brief, the stomachs of each animal group’s rat were fixed in 10% neutral buffered formalin for 48 h. The sections were then dehydrated, cleared, fixed in paraffin, sectioned ([…]), and stained with H&E stain.

For the next data set, the target named is T2, COX-2 (Ovis aries, UniProt P79208).
T2 sequence (P79208 17-603): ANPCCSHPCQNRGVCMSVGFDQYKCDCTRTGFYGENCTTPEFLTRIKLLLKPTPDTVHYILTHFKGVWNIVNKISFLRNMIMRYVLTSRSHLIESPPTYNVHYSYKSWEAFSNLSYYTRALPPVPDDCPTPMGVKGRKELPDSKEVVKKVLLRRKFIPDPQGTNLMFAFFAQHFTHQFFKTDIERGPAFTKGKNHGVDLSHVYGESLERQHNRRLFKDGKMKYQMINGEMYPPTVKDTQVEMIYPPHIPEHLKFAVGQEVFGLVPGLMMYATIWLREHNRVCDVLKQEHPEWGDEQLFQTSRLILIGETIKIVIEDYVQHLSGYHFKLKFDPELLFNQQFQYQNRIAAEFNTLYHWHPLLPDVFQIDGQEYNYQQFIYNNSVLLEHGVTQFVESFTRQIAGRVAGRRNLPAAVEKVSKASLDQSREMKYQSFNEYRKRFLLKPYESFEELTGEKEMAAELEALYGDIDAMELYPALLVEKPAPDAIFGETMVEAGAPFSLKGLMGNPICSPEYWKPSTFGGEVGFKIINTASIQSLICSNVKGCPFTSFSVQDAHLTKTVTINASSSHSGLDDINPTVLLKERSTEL
In words: COX-2 inhibition, enzyme immune assay (EIA) kit. Type of data set: biochemical, ovine. Particulars: for S.I (IC50 COX-1/IC50 COX-2): COX-2 selectivity index; for SI: lab report, COX1/COX2.

Each structure is given as a SMILES string. Several values for one entry are separate records, joined by “and”; a condition that tells them apart may be missing. Identical values can stand only once.

From the text for ovine COX-1: Colorimetric enzyme immunoassay (EIA) kits were done to screen for the isozyme-specific inhibition.

For orientation: melting point means the temperature, or range, at which the solid turns liquid. One may read the IC50 as the point on the concentration scale where inhibition reaches its midpoint. A higher IC50 goes with weaker potency. Molecule `COc1ccc(NC(=S)N/N=C/c2cn(S(C)(=O)=O)c3ccccc23)cc1` [Compound 4e, (E)-N-(4-Methoxyphenyl)-2{[1-(methylsulfonyl)-1H-indol 3yl]methylene}hydrazinecarbothioamide] came in with a melting point of 214 to 216 °C. Half-maximal inhibition against ovine COX-1 (IC50 COX-1) (IC50) required 24.7 ± 0.7 µM. On ovine COX-1 (conc 0.1 (μM)), this molecule came in with a COX1 %inh of 5.87%. In addition, the COX1 %inh at ovine COX-1 (conc 1 (μM)) is listed as 14.4%. On ovine COX-1 (conc 10 (μM)), this molecule had a COX1 %inh of 28.6%. The same molecule registered a COX1 %inh on ovine COX-1 (conc 100 (μM)) of 73.5%. Besides, the TNF-α fold change in data set [1] was 0.26. For the same molecule, the stomach histopathology finding entry in the data set on stomach is reported as “partial loss of mucous layer with mild superficial erosions”. For the same molecule, at COX-2, the “S.I (IC50 COX-1/IC50 COX-2)” value is recorded as 30.17 and the SI was 30.17.
The molecule `Cc1ccc(N2C(=O)CSC2=NN=Cc2cn(S(C)(=O)=O)c3ccccc23)cc1` [Compound 5d] came in with a melting point of 271 to 273 °C. At ovine COX-1 (IC50 COX1, lab report / text printing uM), this molecule had an IC50 of 5.79 ± 0.16 µM. The IC50 at ovine COX-1 (IC50 COX-1) was 5.79 ± 0.16 µM. On ovine COX-1 (conc 0.1 (μM)), the COX1 %inh came out at 8.83%. At ovine COX-1 (conc 1 (μM)), this molecule registered a COX1 %inh of 27.6%. This molecule registered a COX1 %inh on ovine COX-1 (conc 10 (μM)) of 53.7%. Further, at ovine COX-1 (conc 100 (μM)), the COX1 %inh is recorded as 83.6%. The TNF-α fold change in data set [1] amounted to 0.21. In the data set on stomach, the stomach histopathology finding result was “minimally disrupted mucous layer”. For the same molecule, on COX-2, the “S.I (IC50 COX-1/IC50 COX-2)” value was 8.59 and 8.60; the SI came to 8.596.
